# Reference: patent US12121536B2, “Strontium based compositions and formulations for pain, pruritus, and inflammation” (Galleon Labs LLC, priority 2015, dated 2024)
# Key:
# [1] = emulsions with more than about 6-7% salt (about 2% elemental strontium)
# [2] = Clinical observation: topical application, itching and erythema (flushing); assay type: in vivo, human; settings: for itching and erythema of skin: 1% in water solution, 4×2 inch patch on inside forearm, one subject
# Description: BHB acts on the same pathway that causes flushing in individuals who take high doses of niacin. A topical formulation containing BHB was evaluated to see if it induced itching and erythema. The BHB formulation was compared to a topical niacin formulation.
# A 1% BHB in water solution was made and a 1% niacin in water solution was made. Unknown to the subject, the BHB formula was applied in a 4×2 inch patch on the inside left forearm and the niacin formula was applied in a 4×2 in patch on the inside right forearm. The skin was evaluated over a period of time.
# TCN [3] = assay: Burning pain from acidic chemical peel (70% glycolic acid) mixed with strontium; assay type: in vivo; settings: strontium mixed with 70% glycolic acid, pH 0.6
# Description: Nociceptors also have a CaSR that inhibits nociceptor activation when the extracellular concentration of calcium is raised above normal, or if a similar concentration of strontium is administered. […] When strontium is mixed with the acid, burning pain and stinging is suppressed by 80% or more so that any remaining sensory irritation is not bothersome.
# IL-17 = biological target: T1, IL-17 (Homo sapiens, UniProt Q16552); assay: Preliminary investigations in psoriasis: IL-17
# T1 sequence (Q16552 24-155): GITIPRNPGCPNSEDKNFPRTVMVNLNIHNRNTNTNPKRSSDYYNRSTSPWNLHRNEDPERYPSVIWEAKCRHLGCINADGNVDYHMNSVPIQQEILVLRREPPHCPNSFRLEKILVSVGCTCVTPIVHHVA
# Source text: (§1) Preliminary investigations indicate that strontium can break up the inflammatory/keratinocyte cycle of psoriasis, specifically by blocking the IL-17 and TNF-alpha. By targeting and blocking the two main pathways that activated dendritic cells use to trigger a psoriatic episode, strontium has immense potential as a therapeutic for psoriasis.
# TLR-4 = TLR-4 (Homo sapiens, UniProt O00206); assay: Preliminary data in atopic dermatitis: TLR-4
# [4] = Preliminary investigations: pain of post herpetic neuralgia; assay type: in vivo
# nociceptor = settings: cited from earlier work
# TCN [5] = settings: strontium substitutes for calcium; cited from earlier work
# [6] = Topical application to skin for pain, itch, irritation; assay type: in vivo; settings: simple solutions of strontium and water, no penetration enhancer
# Source text: Without wishing to be bound by any one theory, it is believed that opening ion channels in the presence of strontium, allows greater levels of strontium to enter the nociceptor and shut down or decrease its activity. This is due to (1) strontium having a higher affinity than calcium for flowing into the ion channels and (2) the excessive amount of strontium ions present as compared to the physiological levels of calcium present. Furthermore, cysteine based antioxidants and strontium target different mechanisms to block nociception. The combination results in a synergistic affect
# Most skin products are “pH balanced” to help maintain a healthy skin pH. […] While not wishing to be bound by any one theory, it is believed that the application of a low pH formulation on the skin activates acid sensitive ion channels such as ASIC and TRPV1 resulting in the opening of ion channels on the nociceptor. The opening of the ion channels in the presence of strontium allows greater levels of strontium to enter the nociceptor and shut down or decrease it activity. This is due to (1) strontium having a higher affinity than calcium for flowing into the ion channels and (2) the excessive amount of strontium ions present as compared to the physiological levels of calcium present. […]
# HSV1 = assay: Preliminary investigations: symptoms of HSV1; assay type: in vivo
# Source text: Without wishing to be bound by any one theory, it is believed that strontium's ability to block NF-Kappa B contributes to minimizing the symptoms associated with an active infection. As mentioned above, HSV 1 and 2 require the activation of NF-Kappa B for de novo virus synthesis. By blocking NF-Kappa B, strontium is essentially stopping the infection at an early stage.
# MMP = assay: Preliminary data in atopic dermatitis: MMP
# TNF-alpha = TNF-alpha (Homo sapiens, UniProt P01375); assay: Preliminary investigations in psoriasis: TNF-alpha
# Source text: as §1
# Sequence of TLR-4 (O00206 24-839, species assumed): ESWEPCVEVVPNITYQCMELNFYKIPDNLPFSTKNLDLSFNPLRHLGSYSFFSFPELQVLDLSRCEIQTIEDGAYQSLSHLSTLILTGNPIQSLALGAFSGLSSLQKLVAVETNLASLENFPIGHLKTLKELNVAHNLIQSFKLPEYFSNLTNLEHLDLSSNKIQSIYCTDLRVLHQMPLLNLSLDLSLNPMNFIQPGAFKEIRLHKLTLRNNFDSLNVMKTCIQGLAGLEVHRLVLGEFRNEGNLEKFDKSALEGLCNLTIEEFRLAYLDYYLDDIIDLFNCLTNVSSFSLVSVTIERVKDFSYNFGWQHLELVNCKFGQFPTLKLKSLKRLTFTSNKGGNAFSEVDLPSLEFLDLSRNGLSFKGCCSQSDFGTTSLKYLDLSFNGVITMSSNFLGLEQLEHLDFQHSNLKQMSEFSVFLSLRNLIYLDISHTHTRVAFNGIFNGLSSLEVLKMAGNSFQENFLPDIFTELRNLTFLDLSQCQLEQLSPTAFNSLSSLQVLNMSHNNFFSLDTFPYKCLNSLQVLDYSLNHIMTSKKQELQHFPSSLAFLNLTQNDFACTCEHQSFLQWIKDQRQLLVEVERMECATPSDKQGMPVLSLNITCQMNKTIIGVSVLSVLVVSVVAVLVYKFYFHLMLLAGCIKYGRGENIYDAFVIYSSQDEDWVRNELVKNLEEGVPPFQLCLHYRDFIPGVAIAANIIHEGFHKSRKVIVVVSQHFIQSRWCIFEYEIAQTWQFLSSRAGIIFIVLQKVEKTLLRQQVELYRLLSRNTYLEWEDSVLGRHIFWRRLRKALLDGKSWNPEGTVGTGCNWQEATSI
# Sequence of TNF-alpha (P01375 77-233 limits assumed, species assumed): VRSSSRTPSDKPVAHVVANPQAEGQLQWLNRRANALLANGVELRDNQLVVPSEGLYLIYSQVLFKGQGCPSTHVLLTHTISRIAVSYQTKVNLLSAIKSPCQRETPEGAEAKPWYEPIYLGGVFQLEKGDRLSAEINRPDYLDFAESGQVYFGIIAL
smiles,measurement,setting,value
O=[N+]([O-])[O-].O=[N+]([O-])[O-].[Sr+2] [strontium nitrate],emulsion stability,[1],tend to be unstable and separate
"CC(O)CC(=O)O (stereo not drawn) [BHB, beta-hydroxybutyric acid]",itching and erythema of skin,[2],did not redden or become itchy
same,flush/blush response,[2]; compared with niacin,does not activate
O.O.O.O.O.O.[Cl-].[Cl-].[Sr+2] [strontium chloride hexahydrate],emulsion stability,[1],tend to be unstable and separate
[Sr+2] [strontium],suppression of burning pain and stinging,TCN [3],≥ 80%
same,blocking of IL-17,IL-17,blocking
same,blocking of TLR-4 activity,TLR-4,can block
same,pain associated with PHN,[4],can reduce or block
same,ability to induce CICR relative to calcium,nociceptor,over a hundred-fold less active
same,"concentration reached in the ER, greater than calcium",nociceptor; not told,more than 150%
same,reduction of amplitude of synchronous neurotransmitter release,TCN [5],more than 90%
same,reducing pain and irritation,[6],can be effective
same,"pain, itch, and rash/blister formation associated with HSV1",HSV1,can reduce and or eliminate
same,blocking of MMP activity,MMP,can block
same,blocking of TNF-alpha,TNF-alpha,blocking
"O=C(O)c1cccnc1 [niacin, nicotinic acid, reference compound]",itching and erythema of skin,[2],began to redden and itch
